Experimental data from patent US8568997B2, “Detection system and uses therefor” (Dimerix Bioscience Pty Ltd., priority 2006, dated 2013).
Entries after “also recorded” stand apart in the source; their conditions may differ.

Experiments:
Format in all cases: cell-based
OxR2 with HA-TRHR = biological target: T1, OxR2 with HA-TRHR (Homo sapiens, UniProt O43614+P34981); test: eBRET between OxR2/Rluc8 and barr2/Venus with HA-TRHR as IG3
T1 construct: expressed in transfected cells; host or cells: HEK293
T1 sequence (O43614 1-444): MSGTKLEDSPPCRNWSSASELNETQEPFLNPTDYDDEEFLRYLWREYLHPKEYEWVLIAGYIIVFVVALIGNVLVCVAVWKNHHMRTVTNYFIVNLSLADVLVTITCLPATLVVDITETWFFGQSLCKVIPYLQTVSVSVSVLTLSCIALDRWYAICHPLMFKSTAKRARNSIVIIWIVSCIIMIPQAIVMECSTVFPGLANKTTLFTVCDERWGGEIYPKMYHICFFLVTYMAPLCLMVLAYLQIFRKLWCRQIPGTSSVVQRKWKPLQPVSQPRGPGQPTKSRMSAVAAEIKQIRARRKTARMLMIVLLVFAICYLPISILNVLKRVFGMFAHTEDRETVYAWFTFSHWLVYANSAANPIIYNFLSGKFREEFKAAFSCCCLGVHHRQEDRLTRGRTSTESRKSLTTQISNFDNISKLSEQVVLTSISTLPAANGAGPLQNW
T1 sequence (P34981 1-398): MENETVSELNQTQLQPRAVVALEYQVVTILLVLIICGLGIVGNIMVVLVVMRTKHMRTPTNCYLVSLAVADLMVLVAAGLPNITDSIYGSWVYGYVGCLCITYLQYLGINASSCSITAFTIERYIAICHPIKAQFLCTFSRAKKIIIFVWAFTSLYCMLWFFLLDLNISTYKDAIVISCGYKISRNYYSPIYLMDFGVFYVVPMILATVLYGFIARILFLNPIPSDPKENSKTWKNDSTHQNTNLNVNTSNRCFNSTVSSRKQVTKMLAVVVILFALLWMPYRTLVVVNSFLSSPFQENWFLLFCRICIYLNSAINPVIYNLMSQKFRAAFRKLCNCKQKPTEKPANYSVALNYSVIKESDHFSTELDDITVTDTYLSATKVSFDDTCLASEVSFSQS
Experimental: (§1) Phosphate-buffered saline (PBS) was used as a vehicle control.
(§2) Cells were seeded in 6-well plates at a density of approximately 630,000 cells/well (HEK293FT) or approximately 150,000 cells/well (COS-7) and maintained at 37° C., 5% CO2 in Complete Media (DMEM containing 0.3 mg/ml glutamine, 100 IU/ml penicillin and 100 μg/ml streptomycin (Gibco)) supplemented with 10% fetal calf serum (FCS; Gibco). Transient transfections were carried out 24 h after seeding using GeneJuice (Novagen) or Metafectene (Biontex) according to manufacturer instructions. 24 h post-transfection, cells were washed with PBS, detached using 0.05% trypsin/0.53 mM EDTA, resuspended in HEPES-buffered phenol red free Complete Media containing 5% FCS and added to a poly-L-lysine-coated white microplate (Nunc). 48 h post-transfection, eBRET assays were carried out following pre-incubation of cells with EnduRen™ (Promega) at a final concentration of 30-40 μM, at 37° C., 5% CO2 for 2 h. For original BRET studies, the HEPES-buffered phenol red free Complete Media was replaced with PBS and coelenterazine h (Molecular Probes) added to a final concentration of 5 μM immediately prior to commencing the assay. […] Filtered light emissions were sequentially measured for 3-5 s in each of the ‘donor wavelength window’ (400-475 nm) and ‘acceptor wavelength window’ (>500 nm for EGFP or 520-540 nm for EYFP, Topaz (TYFP) or Venus). […]

[1] = system: thyrotropin releasing hormone receptor (TRHR); test: eBRET/BRET beta-arrestin recruitment to TRHR/Rluc without IG3 (pcDNA3) in HEK293 cells
Experimental: eBRET measurements at 37 C were carried out on HEK293 cells transiently co-expressing TRHR/Rluc and barr2/Venus with either pcDNA3, orexin receptor 2 (OxR2), CXC chemokine receptor 2 (CXCR2), hemagglutin epitope-tagged melanocortin receptor 3 or 4 (HA-MC3R or HA-MC4R), or dopamine D2 receptor long form (D2LR) or short form (D2SR) following the treatment of each with their respective ligands.
Ligand treatments were either OxA or TRH only or both OxA and TRH combined. Phosphate-buffered saline (PBS) was used as a vehicle control.
Ligand treatments were either OxA or TRH only. Phosphate-buffered saline (PBS) was used as a vehicle control.
BRET measurements at 37 C were carried out on HEK293 cells transiently co-expressing TRHR/Rluc, barr2/Venus and pcDNA3 with increasing doses of TRH. Sigmoidal dose response curves were plotted using Prism (Graph Pad), either assuming a Hill slope of 1 or allowing for variable slope. The EC50 and Hill slope values for the variable slope curve are included in a table in the graph.
TRHR is IG1, Rluc is RC1, barr1 is IG2, EGFP is RC2 and OxR2 is IG3. The same amount of EGFP/barr1 (IG2-RC2) is transfected for each experiment.
Cells were seeded in 6-well plates at a density of approximately 630,000 cells/well (HEK293FT) or approximately 150,000 cells/well (COS-7) and maintained at 37° C., 5% CO2 in Complete Media (DMEM containing 0.3 mg/ml glutamine, 100 IU/ml penicillin and 100 μg/ml streptomycin (Gibco)) supplemented with 10% fetal calf serum (FCS; Gibco). Transient transfections were carried out 24 h after seeding using GeneJuice (Novagen) or Metafectene (Biontex) according to manufacturer instructions. 24 h post-transfection, cells were washed with PBS, detached using 0.05% trypsin/0.53 mM EDTA, resuspended in HEPES-buffered phenol red free Complete Media containing 5% FCS and added to a poly-L-lysine-coated white microplate (Nunc). 48 h post-transfection, eBRET assays were carried out following pre-incubation of cells with EnduRen™ (Promega) at a final concentration of 30-40 μM, at 37° C., 5% CO2 for 2 h. For original BRET studies, the HEPES-buffered phenol red free Complete Media was replaced with PBS and coelenterazine h (Molecular Probes) added to a final concentration of 5 μM immediately prior to commencing the assay. BRET measurements were taken at 37° C. using the Victor Light plate reader with Wallac 1420 software (Perkin-Elmer). Filtered light emissions were sequentially measured for 3-5 s in each of the ‘donor wavelength window’ (400-475 nm) and ‘acceptor wavelength window’ (>500 nm for EGFP or 520-540 nm for EYFP, Topaz (TYFP) or Venus). The BRET signal observed between interacting proteins is normalized by subtracting the background BRET ratio. This can be done in one of two ways (see Pfleger et al. (2006) Cell Signal 18, 1664-1670; Pfleger et al. (2006) Nat Protoc 1, 336-344): 1) the ratio of light emission through the ‘acceptor wavelength window’ over the 400-475 nm emission for a cell sample containing only the donor construct is subtracted from the same ratio for a sample containing the interacting acceptor and donor fusion proteins; 2) the ratio of light emission through the ‘acceptor wavelength window’ over the 400-475 nm emission for a cell sample treated with vehicle is subtracted from the same ratio for a second aliquot of the same cell sample treated with ligand. In the following examples, the first calculation will be used, unless the signal is described as the ligand-induced BRET ratio'.

[2] = system: TRHR335 (truncated TRHR) with OxR2; test: eBRET/BRET between TRHR335/Rluc and labelled beta-arrestin with OxR2 as IG3
Experimental: Cells were seeded in 6-well plates at a density of approximately 630,000 cells/well (HEK293FT) or approximately 150,000 cells/well (COS-7) and maintained at 37° C., 5% CO2 in Complete Media (DMEM containing 0.3 mg/ml glutamine, 100 IU/ml penicillin and 100 μg/ml streptomycin (Gibco)) supplemented with 10% fetal calf serum (FCS; Gibco). Transient transfections were carried out 24 h after seeding using GeneJuice (Novagen) or Metafectene (Biontex) according to manufacturer instructions. 24 h post-transfection, cells were washed with PBS, detached using 0.05% trypsin/0.53 mM EDTA, resuspended in HEPES-buffered phenol red free Complete Media containing 5% FCS and added to a poly-L-lysine-coated white microplate (Nunc). 48 h post-transfection, eBRET assays were carried out following pre-incubation of cells with EnduRen™ (Promega) at a final concentration of 30-40 μM, at 37° C., 5% CO2 for 2 h. For original BRET studies, the HEPES-buffered phenol red free Complete Media was replaced with PBS and coelenterazine h (Molecular Probes) added to a final concentration of 5 μM immediately prior to commencing the assay. […] Filtered light emissions were sequentially measured for 3-5 s in each of the ‘donor wavelength window’ (400-475 nm) and ‘acceptor wavelength window’ (>500 nm for EGFP or 520-540 nm for EYFP, Topaz (TYFP) or Venus). The BRET signal observed between interacting proteins is normalized by subtracting the background BRET ratio.

OxR2 = biological target: T2, OxR2 (Homo sapiens, UniProt O43614); test: BRET/eBRET beta-arrestin 2 recruitment to OxR2/Rluc (or Rluc8) without IG3 (pcDNA3); settings: OxR2/Rluc8 + barr2/Venus + pcDNA3
T2 construct: expressed in transfected cells; host or cells: HEK293
T2 sequence (O43614 1-444): T1 sequence (O43614 1-444)
Experimental: as §1, §2

[3] = biological target: bradykinin B2 receptor (B2R) with HA-AT1R (Homo sapiens, UniProt P30556); test: eBRET between B2R/Rluc8 and barr2/Venus with HA-AT1R as IG3
Experimental: Phosphate-buffered saline (PBS) was used as a vehicle control. Data presented as ligand-induced BRET ratio.
BRET measurements at 37 C were carried out on HEK293 cells transiently co-expressing B2R/Rluc8, barr2/Venus and HA-AT1R treated with increasing doses of Angiotensin II (AngII). A sigmoidal dose response curve was plotted using Prism (GraphPad) allowing for variable slope.
Cells were seeded in 6-well plates at a density of approximately 630,000 cells/well (HEK293FT) or approximately 150,000 cells/well (COS-7) and maintained at 37° C., 5% CO2 in Complete Media (DMEM containing 0.3 mg/ml glutamine, 100 IU/ml penicillin and 100 μg/ml streptomycin (Gibco)) supplemented with 10% fetal calf serum (FCS; Gibco). Transient transfections were carried out 24 h after seeding using GeneJuice (Novagen) or Metafectene (Biontex) according to manufacturer instructions. […] BRET measurements were taken at 37° C. using the Victor Light plate reader with Wallac 1420 software (Perkin-Elmer). Filtered light emissions were sequentially measured for 3-5 s in each of the ‘donor wavelength window’ (400-475 nm) and ‘acceptor wavelength window’ (>500 nm for EGFP or 520-540 nm for EYFP, Topaz (TYFP) or Venus). […]

Chain of bradykinin B2 receptor (B2R) with HA-AT1R (P30411 whole entry): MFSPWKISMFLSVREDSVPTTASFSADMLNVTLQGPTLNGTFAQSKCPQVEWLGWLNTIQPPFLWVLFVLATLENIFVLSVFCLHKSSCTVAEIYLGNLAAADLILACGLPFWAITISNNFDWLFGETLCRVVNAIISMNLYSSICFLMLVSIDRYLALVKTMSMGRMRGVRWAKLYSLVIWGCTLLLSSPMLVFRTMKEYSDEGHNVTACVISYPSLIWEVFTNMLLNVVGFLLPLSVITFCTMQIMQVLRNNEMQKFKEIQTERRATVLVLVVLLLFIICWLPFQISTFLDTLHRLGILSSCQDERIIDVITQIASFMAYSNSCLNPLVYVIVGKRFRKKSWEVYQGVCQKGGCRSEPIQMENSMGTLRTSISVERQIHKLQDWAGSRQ
Chain of bradykinin B2 receptor (B2R) with HA-AT1R (P30556 whole entry): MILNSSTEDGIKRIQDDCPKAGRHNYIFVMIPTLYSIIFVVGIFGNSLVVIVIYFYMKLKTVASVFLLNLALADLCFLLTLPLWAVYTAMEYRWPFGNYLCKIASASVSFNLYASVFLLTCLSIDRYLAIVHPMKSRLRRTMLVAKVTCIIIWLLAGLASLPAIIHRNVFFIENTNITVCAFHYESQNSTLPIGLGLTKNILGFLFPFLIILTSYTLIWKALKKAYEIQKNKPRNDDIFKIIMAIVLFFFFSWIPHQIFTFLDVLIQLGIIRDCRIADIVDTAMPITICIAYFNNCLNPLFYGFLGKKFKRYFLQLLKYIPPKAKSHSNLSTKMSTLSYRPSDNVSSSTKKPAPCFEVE

Row | ligand-induced eBRET signal (OxR2 with HA-TRHR) | ligand-induced eBRET signal (OxR2) | eBRET signal (ligand-induced BRET ratio) [3] | Molecule | time to eBRET signal peak ([1]; HEK293, TRHR/Rluc + barr2/Venus + pcDNA3, ligand 10^−6M) | eBRET signal peak ([1]; HEK293, TRHR/Rluc + barr2/Venus + pcDNA3, ligand 10^−6M, 37 C) | eBRET signal ([1]; TRHR/Rluc + EGFP/barr (barr1, barr2 or barr1R169E), no OxR2) | dose-response Hill slope ([1]; TRHR/Rluc + barr2/Venus + pcDNA3, FIG. 10) | eBRET signal ([2]; TRHR335/Rluc + EGFP/barr1 + OxR2) | BRET signal, dose response curves ([2]; TRHR335/Rluc + barr2/Venus + OxR2)
1 | 0.05 | No ligand-induced eBRET signal |  | NC(=O)[C@@H]1CCCN1C(=O)[C@H](Cc1cnc[nH]1)NC(=O)[C@@H]1CCC(=O)N1 [TRH, pGlu-His-Pro-NH2] | Within the first minute | greater than 0.17 | rapid stimulation of the eBRET signal; also recorded: rapid increase in eBRET signal | approximately 1 | no eBRET signal above baseline | does not result in a BRET signal
2 |  |  | robust increase in the eBRET signal | AngII |  |  |  |  |  | 
